In patent publication US12168008B2, “Oxabicycloheptanes for modulation of immune response” (LIXTE BIOTECHNOLOGY, INC., priority 2016, dated 2024):

Experiments:
[1] = tested on: tumor infiltrating lymphocytes; assay: Flow cytometry of tumor infiltrating lymphocytes, spleen and draining lymph node in CT26-bearing mice; assay type: in vivo, mouse
Description: The treatment effect was assessed on tumor infiltrating lymphocytes (FIGS. 23A-B). CT26 tumor-bearing mice were treated with LB-100 and/or anti-PD-1 antibodies as above. After 12 days of treatment, tumors were analyzed by FACS. […] In addition, given the known importance of PP2A in Treg, the effect of LB-100 and/or anti-PD-1 treatment was examined on the amount of Tregs present in the tumor. […] This effect is similar in degree to the effect on Tregs depletion by anti-PD-1 or the combination.
Enhanced activation of lymphocytes with combination treatment: To address the cellular mechanism mediating tumor rejection by the LB-100/aPD-1 combination, the status of the immune system in the secondary lymphoid organs and in the tumor were examined. Mice were implanted with CT26 tumors and treated with LB-100 and/or aPD-1 as described above. On day 3, after two treatments, the spleens, tumor draining lymph nodes (dLN) and tumors were harvested and analyzed by flow cytometry (FIG. 26-27). In the secondary lymphoid tissue, a greater activation of CD8+ T cells in mice treated with the combination regimen compared to controls was observed, as indicated by greater frequency of CD44+CD62L-CD8+ T cells (FIG. 26A-C). […] There was no difference in frequency of CD44+CD62L− subset in CD4+ T cells in both the spleen and dLN (FIGS. 28A and 29A). Immune check point markers, including expression of PD-1, CTLA4, TIM3 and Ox40 on CD8+ and CD4+ T cells were examined in the tumor draining lymph node and spleen (FIGS. 28 and 29).
Isolation of TILs—Mice were injected in the right thoracic flank with 0.5×10^6 CT26 cells and treated as above after tumors reached between 50-100 mm^3. After 2 treatments, mice were sacrificed and tumors excised. Tumors were subjected to mechanical disruption using a GentleMACS Dissociator (Miltenyi Biotec) in presence of enzymatic digestion using Tumor Dissociation Kit (Miltenyi Biotec). […] Cells were analyzed by flow cytometry (LSRII; BD Bioscience). […]

CD4/8 effector cells = assay: T cell subsets in naive mice (FIG. 13-14); assay type: in vivo, mouse
Description: FIG. 13A. […] Low dose of LB treatment in vivo induced more CD8 (left) and CD4 (right) effector T cells in lymph node. 5 mice per group. Control—PBS, Low dose—0.16 mg/kg, Medium dose—0.32 mg/kg.

[2] = tested on: mTORC1, mTORC2 and PI(3)K-AKT pathways; assay: Phosphoflow of AKT and S6 in activated CD3 cells; assay type: cell-based, mouse; settings: after 3 hours of activation
Description: After 3 hours of in vitro activation of isolated CD3 cells, the activity of mTORC1, mTORC2 and PI(3)K-AKT pathways were assessed by checking the phosphorylation of ribosomal S6 protein (S6), AKT at […] and AKT at Thr308 respectively. […] This difference was not observed in any of the 3 pathways at an early time point of 30 minutes after activation (FIG. 37).
Isolation of TILs—Mice were injected in the right thoracic flank with 0.5×10^6 CT26 cells and treated as above after tumors reached between 50-100 mm^3. After 2 treatments, mice were sacrificed and tumors excised. Tumors were subjected to mechanical disruption using a GentleMACS Dissociator (Miltenyi Biotec) in presence of enzymatic digestion using Tumor Dissociation Kit (Miltenyi Biotec). Intracellular cytokine staining, phosphoflow and flow cytometry—Suspensions containing T cells were stained with a fixable live/dead stain (Invitrogen) in PBS followed by surface antibody staining in FACS buffer (PBS with 0.5% BSA and 0.1% sodium azide). For intracellular staining, cells were stained for surface molecules following by fixation and permeabilization (eBioscience). For cytokine staining, cells were first stimulated with Cell Stimulation Cocktail (eBioscience) containing PMA/Ionomycin and protein transport inhibitor prior to undergoing staining. […] Cells were analyzed by flow cytometry (LSRII; BD Bioscience). […]

CD4+ T cells = assay: Human mixed lymphocyte reaction (Example 13); assay type: cell-based
Description: FIG. 39A. DCs were induced from purified monocytes by culturing in IL4 and GM-CSF for 7 days. 10^5 purified CFSE labelled CD4+ T cells were then co-cultured with 10^4 allogenic DCs in the presence of a titration of LB-100 in duplicates or triplicates for 5 days. LB-100 was replenished on day 3. Supernatants were collected on day 5 and measured for IFN-γ production. FACS analysis was performed on the cultured cells.
In vitro activity of LB-100 in human mixed lymphocytes reactions: To further confirm the immune-modulating effect of LB-100 has clinical utility, mixed lymphocyte reactions (MLRs) were performed using PBMC from healthy human donors. Monocyte derived dendritic cells were co-cultured with allogenic CD4+ T cells labelled with cytosolic dye CFSE. LB-100 was given on the day of co-culture (Day 0) and again on Day 3. Proliferation and IFN-γ secretion by CD4 T cells were assessed on Day 5 (FIG. 39A). There was a significant increase in CD4 T cell proliferation, as measured by the percentage of dividing cells, with LB-100 treatment at 1 μM (31% compared to 20% in controls) (FIG. 39B). There was also a trend towards increased proliferation at lower LB100 concentrations (in the sub-micromolar range). […] Also examined was the effect of lineage differentiation in CD4 T cells by labeling for T-bet. […] Next tested whether LB-100 could enhance IFN-γ secretion in vitro in combination with PD1 blockade using Nivolumab. A similar MLR assay was performed with LB-100.
Human mixed lymphocyte reaction—as previously described in 39. Dendritic cells (DCs) were generated by culturing monocytes isolated from PBMC using a monocyte isolation kit (StemCell) in vitro for 7 days with 500U/ml interleukin-4 (IL-4) and 250 U/ml GM-CSF (R&D Systems). CD4+ T cells (1×10^5) isolated with CD4 isolation kit (StemCell) and labeled with CFSE (ThermoFisher) were co-cultured with allogeneic DCs (1×10^4). At the initiation of assay, a titration of LB-100 and/or Nivolumab was added. After 3 days, LB-100 was replenished to the final indicated concentration. After 5 days, culture supernatants were analyzed by ELISA (eBioscience) and cells were analyzed by flow cytometry. At least 3 separate donors were obtained and results of one representative donor were reported.

For `CN1CCN(C(=O)C2C(C(=O)O)[C@H]3CC[C@@H]2O3)CC1` (stereo partly shown) [LB-100], the “Tregs in the tumor” value ([1]; after 12 days of treatment, control 14.7) was 2.1%, the “CD44+CD62L-CD8+ T cells in the spleen” value ([1]; day 3, after two treatments, control 13.0) was 16.6% and the “PD-1 expression in CD4+ and CD8+ TILs” value ([1]; mouse, in vivo) was “did not further alter PD-1 expression”. The “PD-1 expressing CD8+ T cells in blood” value (CD4/8 effector cells; low dose) was “reduced PD-1 expressing CD8+ T cells in blood”, the “CD4/8 effector cells in lymph node of naïve mice” value (CD4/8 effector cells; low dose 0.16 mg/kg) was “increased CD4/8 effector cells” and the “PD-1 expressing CD8+ T cells in spleen” value (CD4/8 effector cells; medium dose) was “reduced PD-1 expressing CD8+ T cells in spleen”. The “activity of mTORC1 as measured by phosphorylation of S6” value [2] was “dose dependent increase”, the “mTORC2 and PI(3)K-AKT pathways (AKT phosphorylation)” value [2] was “minimal effect” and the “enhancement of IFN-γ release” value (CD4+ T cells; 0.2 μM) was 3.5 fold. The “T-bet expression in CD4 T cells” value (CD4+ T cells; 1 μM) was “significantly increased”, the “enhancement of IFN-γ release” value (CD4+ T cells; 1 μM) was 4 fold and the “CD4 T cell proliferation, percentage of dividing cells” value (CD4+ T cells; 1 μM, day 5, controls 20%) was 31%. The “CD4 T cell proliferation” value (CD4+ T cells; 5 μM) was “impaired”.
